Article PMC9964319, “Half-Sandwich Rhodium Complexes with Releasable N-Donor Monodentate Ligands: Solution Chemical Properties and the Possibility for Acidosis Activation” (Pharmaceutics, 2023)
Where two headings read alike, the source gives them in different places.

How the values were obtained:
[1] = Computed fractions of mixed-ligand complexes as function of pH from formation constants; type: physicochemical; details: for difference in computed fraction (dissociated) when pH decreases from 7.4 to 6.0: 100 μM, ratio 1:1; for fraction of the active form (computed): pH 6.0
Experimental: With the help of these formation constants, the extent of complex formation can be estimated for a chosen monodentate ligand—complex chemical system under the desired conditions (concentration and pH). Figure 6 and Figure S25 show the computed fractions of the formed, mixed-ligand complexes between pH = 5 and 8 and at a 100 μM concentration (metal complex-to-monodentate ligand ratio = 1:1). The fraction at pH = 7.4 and at pH 6.0–6.7 were compared to each other.
As an example, the fractions of [Ru(p-cym)(8HQH−1)(mim)]^+ are shown in Figure S26 with decreasing concentration.
Formation constants shown in Figure 5 and in Table S2 were used for the calculation. Percentages indicate the fraction at pH = 7.4 (blue line) and in the range between pH = 6.0–6.7 (pink rectangle: possible pH of tumor microenvironment during acidosis).

S. aureus 272123 (MRSA) = assay: Antibacterial assay, MIC in 96-well plates at different pH; type: cell-based; details: read-out: MIC
From the text: (§1) The antibacterial effect was studied in two Gram-positive and in two Gram-negative strains. The Gram-positive S. aureus ATCC 25923 (ATCC, Manassas, VA, USA) is a methicillin-susceptible reference bacterial strain, while S. aureus 272123 is a clinical isolate and resistant to methicillin and ofloxacin (MRSA), which was given by Prof. Dr. Leonard Amaral (Institute of Hygiene and Tropical Medicine, Lisbon, Portugal). The Gram-negative strains were E. coli ATCC 25922 (ATCC, Manassas, VA, USA), which is sensitive to antibiotics, and E. coli 32313 (provided by the Institute of Clinical Microbiology, University of Szeged, Hungary), which is resistant to different antibiotics (trimethoprim/sulfamethoxazole, gentamicin, ciprofloxacin, and norfloxacin).
(§2) The minimum inhibitory concentrations (MICs) of the compounds were determined in 96-well plates based on the Clinical and Laboratory Standard Institute guidelines. The compounds were diluted in 100 μL of Mueller Hinton broth. Then, an overnight bacterial culture diluted 10,000 times in 100 μL of medium was added to each well, with the exception of the medium control wells. For each strain and each tested compound, four pH values were set (5, 6, 7, and 8). Each sample was triplicated.

[2] = test system: E. coli ATCC 25922 (sensitive); assay: as above; type: cell-based; details: E. coli sensitive, after one day, read-out: MIC
From the text: as §1, §2

[3] = test system: S. aureus ATCC 25923 (methicillin-susceptible); assay: as above; type: cell-based; details: S. aureus sensitive, after one day, read-out: MIC
From the text: as §1, §2

[4] = test system: E. coli 32313 (resistant); assay: as above; type: cell-based; details: E. coli resistant, after one day, read-out: MIC
From the text: as §1, §2

[5] = Formation constants of mixed-ligand half-sandwich complexes (UV-vis and 1H NMR); type: physicochemical; details: aqua complex + monodentate ligand; I = 0.10 M (KCl); t = 25.0 °C; UV-vis and 1H NMR
Experimental: NMR spectroscopic studies were carried out on a Bruker Avance III HD Ascend 500 Plus instrument. For the aqueous samples, ^1H NMR spectra were recorded with the WATERGATE water suppression pulse scheme using DSS internal standard. The highest peak of DSS was 0.00 ppm. The measurement was very similar to the UV-vis measurement since the complex–to–monodentate ligand ratio was also between 0–10 equivalents; the spectra were recorded after the given waiting time. […] This technique was useful in those cases where no spectral change was visible during the UV-vis titrations.
In both measurement methods, the formation constant (K) was obtained using the computer program PSEQUAD [38].
It is worthwhile to mention that the liberation of the bidentate ligand was not detected even at higher monodentate ligand excess (~10), which means that the disruption of the bond between the bidentate ligand and the metal center is not feasible under these conditions. The calculated formation constants are compared in Figure 5 and are collected in Table S2. The formation of the mixed-ligand complexes was not detected in three cases under the applied conditions, namely [Ru(p-cym)(en)(mim)]^2+, [Ru(p-cym)(phen)(mim)]^2+, and [Ru(p-cym)(en)(Py)]^2+. For these complexes, only a higher limit of the formation constant could be given, assuming that a maximum of 5% of the complex would form (limit of detection) under the conditions used for ^1H NMR spectroscopy. Based on Figure 5, the following trends are observed in the formation constants: (i) [RhCp*(en)(H2O)]^2+ and [RhCp*(phen)(H2O)]^2+ have a stronger monodentate ligand-binding ability than the Ru(p-cym) analogs; (ii) the formation constants of the [Ru(p-cym)(8HQH-1)(N)]^+ complexes are similar or somewhat higher than those of the RhCp* analogs; (iii) a stability trend for the monodentate ligand: mim > bim > Py (iv) and the bidentate ligand: 8HQH-1 > phen ≥ en can be seen.

[6] = Fractions of mixed-ligand complexes at 1:1 ratio at pH 6.0 and 7.4 by 1H NMR (screening of monodentate ligands); type: physicochemical; details: 1H NMR
Experimental: In the preliminary studies, the co-ordination ability of the monodentate ligands to the [RhCp*(en)(H2O)]^2+, [RhCp*(phen)(H2O)]^2+, and [RhCp*(8HQH-1)(H2O)]^+ complexes was tested (Chart 2). The samples contained the aqua complex and the monodentate ligand in a 1:1 ratio and were buffered at pH = 6.0 and pH = 7.4. For an ideal drug candidate, all of the monodentate ligand would be bound at pH 7.4; thus, the mixed-ligand complex would be present exclusively, which dissociates completely at pH 6.0.
Figure 1 Fractions of the formed mixed-ligand [RhCp*(N,N/O)(N)]^2+/+ complexes at c(complex):c(monodentate ligand) = 1:1 ratio measured at pH = 6.0 (full bars) and 7.4 (checkered bars). Fractions were determined by the integration of the peaks in the ^1H NMR spectra. The percentage values above the columns show the difference in the fractions of the mixed-ligand complex at the two pH values. {c([RhCp*(phen)(H2O)]^2+) = c([RhCp*(en)(H2O)]^2+) = 1 mM; c([RhCp*(8HQH−1)(H2O)]^+) = 500 μM; 10% D2O; pH = 6.0 or 7.4 (PBS’); t = 25.0 °C}. […] The percentages were assigned to (N,N) = en, (N,N) = phen and (N,O) = 8HQH-1 by bar colour only.

[7] = Proton dissociation constants of the coordinated water in [M(arene)(N,N/O)(H2O)]2+/+ complexes (UV-vis titration); details: I = 0.10 M (KCl); t = 25.0 °C; UV-vis
From the text: The proton dissociation of the aqua ligand in the [M(arene)(N,N/O)(H2O)]^2+/+ complexes (Scheme 2) results in the inert mixed-hydroxido species (general formula: [M(arene)(N,N/O)(OH)]^+/0).

physchem = details: water with 0.10 M KCl
Experimental: pH-potentiometric measurements were performed to determine the protonation constants (Kp) of the ligands and the concentration of the stock solutions. These measurements were carried out at 25.0 ± 0.1 °C in water in a pH range between 2.0 and 11.5, titrating with carbonate-free KOH solution (0.10 M). […] A Thermo Scientific 0710A0 benchtop pH meter (Waltham, MA, USA), equipped with a Metrohm combined electrode (type 6.0234.100) and a Metrohm 665 Dosimat burette (Metrohm, Herisau, Switzerland) was used for these measurements. […] The initial volume of the samples was 10.0 mL, and the ligand concentration was 2.0 mM in the samples. Samples were degassed by bubbling purified argon prior to and during the measurements. The computer program Hyperquad2013 [28] was utilized to determine the protonation constants of the ligands and concentration.
The protonation constants (Kp) were determined by pH-potentiometric and UV-vis spectrophotometric titrations in the presence of 0.1 M KCl (see Table 1 and Figures S21 and S22 for examples).

[8] = pH 6, listed as [RhCp*(8HQH-1)Cl] +mim
[9] = pH 7, listed as [RhCp*(8HQH-1)Cl] +mim
[10] = pH 6, listed as [RhCp*(phen)Cl]Cl +mim
[11] = pH 7, listed as [RhCp*(phen)Cl]Cl +mim

Q: Which results are given for `Cc1c(C)c(C)[c-](C)c1C.Cn1ccnc1.[O-]c1cccc2cccnc12.[Rh+3]` [[RhCp*(8HQH−1)(mim)]^+]?
A: difference in computed fraction (dissociated) when pH decreases from 7.4 to 6.0 [1]: 13%; MIC (S. aureus 272123 (MRSA); pH 5, after one day): 50 µM; MIC (S. aureus 272123 (MRSA); pH 6, after one day): 25 µM; MIC (S. aureus 272123 (MRSA); pH 7, after one day): 12.5 µM; MIC (S. aureus 272123 (MRSA); pH 8, after one day): 12.5 µM; MIC ([2]; pH 5): > 100 µM; MIC [2, 8]: >100 µM; MIC [2, 9]: >100 µM; MIC ([2]; pH 8): > 100 µM; MIC ([3]; pH 7): 12.5 µM; MIC ([3]; pH 8): 12.5 µM; MIC ([4]; pH 5): > 100 µM; MIC [4, 8]: >100 µM; MIC [4, 9]: >100 µM; MIC ([4]; pH 8): > 100 µM; Formation constant logK of mixed-ligand complex [5]: 4.7 ± 0.2

Q: Which “Fraction of mixed-ligand complex” value ([6]; pH 6.0, PBS') does the source give for `Cc1c(C)c(C)[c-](C)c1C.Cn1ccnc1.NCCN.[Rh+3]` [[RhCp*(en)(mim)]^2+] here?
A: Its value is 52%.

Q: What about the “Fraction of mixed-ligand complex” value ([6]; pH 7.4, PBS') of the same compound?
A: Its value is 82%.

Q: And the “Formation constant logK of mixed-ligand complex” value [5]?
A: The value was 4.2 ± 0.1.

Q: What does the source list for `Cc1c(C)c(C)[c-](C)c1C.Cn1ccnc1.[Rh+3].c1cnc2c(c1)ccc1cccnc12` [[RhCp*(phen)(mim)]^2+]?
A: difference in computed fraction (dissociated) when pH decreases from 7.4 to 6.0 [1]: 25%; MIC (S. aureus 272123 (MRSA); pH 5, after one day): > 100 µM; MIC (S. aureus 272123 (MRSA); pH 6, after one day, listed as [RhCp*(phen)Cl]Cl +mim): >100 µM; MIC (S. aureus 272123 (MRSA); pH 7, after one day, listed as [RhCp*(phen)Cl]Cl +mim): >100 µM; MIC (S. aureus 272123 (MRSA); pH 8, after one day): > 100 µM; MIC ([2]; pH 5): > 100 µM; MIC [2, 10]: >100 µM; MIC [2, 11]: >100 µM; MIC ([2]; pH 8): > 100 µM; MIC [3, 11]: >100 µM; MIC ([3]; pH 8): > 100 µM; MIC ([4]; pH 5): > 100 µM; MIC [4, 10]: >100 µM; MIC [4, 11]: >100 µM; MIC ([4]; pH 8): > 100 µM; Formation constant logK of mixed-ligand complex [5]: 5.5 ± 0.1

Q: With `Cc1ccc(C(C)C)cc1.O.[O-]c1cccc2cccnc12.[Ru+2]` [[Ru(p-cym)(8HQH-1)(H2O)]+] as the compound, how does the “pKa of the coordinated water molecule” value [7] read?
A: Its value is 9.31±0.01.

Q: What does the source list for `Cc1ccc(C(C)C)cc1.Cn1ccnc1.[O-]c1cccc2cccnc12.[Ru+2]` [[Ru(p-cym)(8HQH−1)(mim)]^+]?
A: difference in computed fraction (dissociated) when pH decreases from 7.4 to 6.0 [1]: 10%; fraction of the active form (computed) ([1]; concentration 1 mM): 5%; fraction of the active form (computed) ([1]; concentration two orders of magnitude below 1 mM): 41%

Q: Which “pKa of the coordinated water molecule” value [7] does the source give for `Cc1ccc(C(C)C)cc1.NCCN.O.[Ru+2]` [[Ru(p-cym)(en)(H2O)]2+] here?
A: Its value is 9.03±0.01.

Q: Which “pKa of the coordinated water molecule” value [7] does the source give for `Cc1ccc(C(C)C)cc1.O.[Ru+2].c1cnc2c(c1)ccc1cccnc12` [[Ru(p-cym)(phen)(H2O)]2+] here?
A: Its value is 8.91±0.01.

Q: Which pKa (physchem) does the source give for `NCc1ccccc1` [benzylamine] here?
A: Its pKa is 9.42 ± 0.01.
